Laboratory results from patent US12691092B2, “Method for reducing cutaneous skin scarring by pre-emptive priming and compounds and compositions for its implementation” (SOS SCIENCE OF SKIN LTD, priority 2020, dated 2026).

Columns and labels:
[1] = system: Fc epsilon RI (FcεRI); assay: Fc epsilon RI immunohistochemical marker in scar biopsies; type: in vivo, human; conditions: week 4, all groups, p<0.01
Description: (§1) A double-blind randomized placebo-controlled trial was conducted using a temporal punch-biopsy model. The punch biopsy and topical application methodology used in the study is illustrated in FIG. 1, namely showing pre-injury pre-emptive priming (7-days), pre-injury pre-emptive priming (3-days), day of injury (immediate application on day 0), post-injury (delayed 2 weeks post injury) including biopsy time points and time of topical applications. Each group applied both placebo and topical formulations twice daily for the duration of the study until week 8, with only the starting time point differing between groups Participants were split into 4 groups (n=10 in each group) in order to compare different modes (timings) of commencement of the topical application: • Group-1: Pre-emptive Priming (7-days): pre-injury • Group-2: Pre-emptive Priming (3-days): pre-injury • Group-3: Immediate (0-day): day-of-injury • Group-4: Delayed (14-days): post-injury Clinical quantitative devices were used to objectively monitor cutaneous healing at weekly intervals and punch biopsies were performed on day 0 (uninjured skin) and at weeks 4 and 8 for protein and gene expression analyses. […] Excisional skin biopsies in upper arms were evaluated weekly with multiple quantitative devices over an 8-week period. […]

[2] = system: langerin; assay: Langerin immunohistochemical marker in scar biopsies; type: in vivo, human; conditions: week 4, group-1 only (7-day pre-injury priming), p=0.02
Description: as §1

[3] = system: VEGF-A; assay: VEGF-A angiogenic immunohistochemical marker in scar biopsies; type: in vivo, human
Description: A double-blind randomized placebo-controlled trial was conducted using a temporal punch-biopsy model. The punch biopsy and topical application methodology used in the study is illustrated in FIG. 1, namely showing pre-injury pre-emptive priming (7-days), pre-injury pre-emptive priming (3-days), day of injury (immediate application on day 0), post-injury (delayed 2 weeks post injury) including biopsy time points and time of topical applications. Each group applied both placebo and topical formulations twice daily for the duration of the study until week 8, with only the starting time point differing between groups Participants were split into 4 groups (n=10 in each group) in order to compare different modes (timings) of commencement of the topical application: • Group-1: Pre-emptive Priming (7-days): pre-injury • Group-2: Pre-emptive Priming (3-days): pre-injury • Group-3: Immediate (0-day): day-of-injury • Group-4: Delayed (14-days): post-injury Clinical quantitative devices were used to objectively monitor cutaneous healing at weekly intervals and punch biopsies were performed on day 0 (uninjured skin) and at weeks 4 and 8 for protein and gene expression analyses. In the trial, topical EGCG and a placebo topical were applied twice daily for the duration of the trial until week 8 with only the starting time points differing between groups. Clinical and experimental analysis involved use of non-invasive devices as well as protein and gene studies. Excisional skin biopsies in upper arms were evaluated weekly with multiple quantitative devices over an 8-week period. […] In order to further support these findings and the clinical findings, two well-known and established angiogenic immunohistochemical markers; CD31 and VEGF-A were used.

[4] = system: Hemeoxygenase-1 (HO-1); assay: HO-1 immunohistochemical marker (anti-oxidant effect); type: in vivo, human; conditions: week 4, all groups, p<0.01
Description: as §1

[5] = system: human skin scarring model; assay: Scar thickness by H+E stain; type: in vivo; conditions: weeks 4 and 8, Groups 1, 2 and 4
Description: as §1

O=C(OC1Cc2c(O)cc(O)cc2OC1c1cc(O)c(O)c(O)c1)c1cc(O)c(O)c(O)c1 (single isomer, unassigned; (-)) [EGCG, (-)-epigallocatechin-3-gallate]
FcεRI in EGCG-treated samples compared to placebo [1]: significant reduction | langerin reduction in EGCG-treated samples compared to placebo [2]: 13% | VEGF-A in EGCG-treated samples compared to placebo ([3]; week 4, all groups, p<0.01): significantly down-regulated | VEGF-A: greater reduction in group-2 compared to group-4 ([3]; week 4, 3-day priming vs delayed, p=0.01): 56% | VEGF-A: greater reduction in group-1 compared to group-4 ([3]; week 4, 7-day priming vs delayed, p=0.005): 51% | VEGF-A in EGCG-treated samples ([3]; week 8, groups 1-3, p<0.01): significant reduction | HO-1 levels, EGCG-treated samples compared to placebo [4]: significantly higher | Scar thickness by H+E stain with EGCG [5]: reduced scar thickness
